Test [1] concerns the target Neuronal acetylcholine receptor; alpha3/beta4 (Rattus norvegicus, UniProt P04757+P12392). The test can be described thus: Displacement of [3H]EB from rat nAChR alpha3beta4 expressed in HEK293 cell membranes by liquid scintillation counting. (In general: In a radioligand displacement assay an active substance lowers the binding of a labelled ligand.)
The target in test [2] is T1, Neuronal acetylcholine receptor subunit alpha-7 (Rattus norvegicus, UniProt Q05941). Put plainly: Agonist activity at rat nAChR alpha7 expressed in GH4C1 cells by fluorescent calcium assay. In kind it is cell-based, GH4-C1.
Test [3] deals with T1, Neuronal acetylcholine receptor subunit alpha-7. The test can be described thus: Displacement of [3H]EB from rat nAChR alpha7 expressed in HEK293 cell membranes by liquid scintillation counting.
For test [4], the target named is Neuronal acetylcholine receptor; alpha4/beta2 (Rattus norvegicus, UniProt P09483+P12390). The test can be described thus: Displacement of [3H]EB from rat nAChR alpha4beta2 expressed in HEK293 cell membranes by liquid scintillation counting.

We go through 8 molecules from ChEMBL document CHEMBL3352103, “Investigations of amide bond variation and biaryl modification in analogues of α7 nAChR agonist SEN12333” (Eur J Med Chem, 2014).

Bounds are passed on as bounds.

Neuronal acetylcholine receptor; alpha3/beta4, sequence (P04757 whole entry): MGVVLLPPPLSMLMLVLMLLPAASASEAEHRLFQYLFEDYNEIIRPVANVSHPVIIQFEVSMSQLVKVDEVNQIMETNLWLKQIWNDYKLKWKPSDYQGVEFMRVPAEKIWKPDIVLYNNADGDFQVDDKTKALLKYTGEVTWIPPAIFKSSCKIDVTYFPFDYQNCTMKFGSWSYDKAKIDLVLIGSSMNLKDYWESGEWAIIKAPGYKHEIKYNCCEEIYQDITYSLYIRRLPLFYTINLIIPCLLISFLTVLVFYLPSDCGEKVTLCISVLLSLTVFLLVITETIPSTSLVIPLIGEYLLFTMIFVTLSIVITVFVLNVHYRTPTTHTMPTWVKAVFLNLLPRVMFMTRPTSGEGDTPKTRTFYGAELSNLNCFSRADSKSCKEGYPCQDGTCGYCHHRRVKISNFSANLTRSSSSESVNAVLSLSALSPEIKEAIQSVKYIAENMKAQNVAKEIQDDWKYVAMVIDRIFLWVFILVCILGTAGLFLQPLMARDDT
Neuronal acetylcholine receptor; alpha3/beta4, sequence (P12392 whole entry): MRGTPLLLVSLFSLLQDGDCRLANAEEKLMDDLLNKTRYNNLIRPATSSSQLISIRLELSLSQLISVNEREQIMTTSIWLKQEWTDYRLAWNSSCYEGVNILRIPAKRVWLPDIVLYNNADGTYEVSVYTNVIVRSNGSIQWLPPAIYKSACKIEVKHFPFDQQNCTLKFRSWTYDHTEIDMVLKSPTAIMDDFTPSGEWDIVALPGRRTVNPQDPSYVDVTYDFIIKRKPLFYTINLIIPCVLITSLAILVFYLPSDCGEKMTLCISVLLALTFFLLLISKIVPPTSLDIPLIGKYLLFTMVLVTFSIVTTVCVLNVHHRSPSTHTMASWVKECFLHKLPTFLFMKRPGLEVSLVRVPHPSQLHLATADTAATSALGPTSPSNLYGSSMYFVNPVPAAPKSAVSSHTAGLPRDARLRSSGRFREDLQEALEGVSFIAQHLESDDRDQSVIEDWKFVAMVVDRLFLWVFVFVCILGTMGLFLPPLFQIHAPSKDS
Neuronal acetylcholine receptor; alpha4/beta2, sequence (P09483 whole entry): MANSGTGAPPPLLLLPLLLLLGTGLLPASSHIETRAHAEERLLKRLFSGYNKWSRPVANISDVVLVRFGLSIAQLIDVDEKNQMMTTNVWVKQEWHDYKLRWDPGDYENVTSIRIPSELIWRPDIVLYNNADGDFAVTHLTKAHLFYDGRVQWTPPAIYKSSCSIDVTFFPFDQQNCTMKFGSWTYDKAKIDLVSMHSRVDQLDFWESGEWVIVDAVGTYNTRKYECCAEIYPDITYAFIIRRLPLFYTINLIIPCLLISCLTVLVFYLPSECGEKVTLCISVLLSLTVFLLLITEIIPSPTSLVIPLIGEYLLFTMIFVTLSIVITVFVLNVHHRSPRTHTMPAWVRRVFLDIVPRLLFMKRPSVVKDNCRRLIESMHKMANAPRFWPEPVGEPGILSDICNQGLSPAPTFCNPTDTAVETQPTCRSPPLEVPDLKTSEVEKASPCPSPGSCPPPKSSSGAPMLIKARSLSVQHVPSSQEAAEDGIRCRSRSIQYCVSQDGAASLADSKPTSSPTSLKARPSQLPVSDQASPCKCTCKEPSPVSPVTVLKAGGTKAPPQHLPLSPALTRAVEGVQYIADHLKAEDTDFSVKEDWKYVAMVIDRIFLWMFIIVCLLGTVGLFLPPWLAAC
Neuronal acetylcholine receptor; alpha4/beta2, sequence (P12390 whole entry): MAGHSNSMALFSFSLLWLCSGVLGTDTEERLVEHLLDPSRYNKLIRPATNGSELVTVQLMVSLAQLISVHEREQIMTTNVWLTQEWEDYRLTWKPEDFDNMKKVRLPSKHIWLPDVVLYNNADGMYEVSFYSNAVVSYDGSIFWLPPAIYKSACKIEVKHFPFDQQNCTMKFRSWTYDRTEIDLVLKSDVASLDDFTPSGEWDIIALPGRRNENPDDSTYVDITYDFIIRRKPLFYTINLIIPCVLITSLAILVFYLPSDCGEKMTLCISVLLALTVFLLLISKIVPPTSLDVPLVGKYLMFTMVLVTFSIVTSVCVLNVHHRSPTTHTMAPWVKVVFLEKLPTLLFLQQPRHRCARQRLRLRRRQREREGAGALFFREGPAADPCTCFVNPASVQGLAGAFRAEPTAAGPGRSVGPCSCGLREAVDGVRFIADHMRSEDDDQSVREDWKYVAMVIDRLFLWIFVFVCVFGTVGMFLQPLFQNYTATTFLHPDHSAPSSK
T1 sequence (Q05941 whole entry): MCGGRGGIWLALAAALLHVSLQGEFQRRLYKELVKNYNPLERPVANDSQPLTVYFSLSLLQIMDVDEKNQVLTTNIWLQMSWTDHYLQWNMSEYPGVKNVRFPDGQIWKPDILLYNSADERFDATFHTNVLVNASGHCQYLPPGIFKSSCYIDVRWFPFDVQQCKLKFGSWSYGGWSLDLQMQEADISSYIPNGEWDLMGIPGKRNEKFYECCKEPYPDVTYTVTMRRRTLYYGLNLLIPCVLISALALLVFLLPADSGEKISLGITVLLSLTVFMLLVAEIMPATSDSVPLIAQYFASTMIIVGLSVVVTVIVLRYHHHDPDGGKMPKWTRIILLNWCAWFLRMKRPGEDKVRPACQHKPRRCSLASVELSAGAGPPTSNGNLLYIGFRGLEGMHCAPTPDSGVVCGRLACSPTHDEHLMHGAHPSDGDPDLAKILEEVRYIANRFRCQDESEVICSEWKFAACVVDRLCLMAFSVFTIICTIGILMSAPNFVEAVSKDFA

What is called Ki is the dissociation constant of the complex between target and ligand, obtained from inhibition or displacement. In general, EC50 refers to the concentration at which the effect is half-maximal. For the molecule `O=C(CCCCN1CCOCC1)Nc1ccc(-c2cccnc2)cc1`, the results for the Ki in test [1] (read-out: Ki), in test [3] and in test [4] (read-out: Ki) were above 10 µM, 0.67 µM and above 10 µM, respectively. Besides, the EC50 in test [2] (read-out: EC50) was 0.86 µM.
As for `O=C(CCCCN1CCOCC1)Nc1ccc(-c2ccccc2)cc1`, the Ki was above 10 µM in test [1] (read-out: Ki), 2.3 µM in test [3] and above 10 µM in test [4] (read-out: Ki). Moreover, in test [2] (read-out: EC50), the EC50 is 1.75 µM.
Regarding `O=C(NCCCCN1CCOCC1)c1ccc(-c2cccnc2)cc1`, the values for the Ki in test [1] (read-out: Ki), in test [3] and in test [4] (read-out: Ki) were above 10 µM, 11 µM and above 10 µM, respectively. Moreover, the EC50 entry in test [2] (gh4-c1) is recorded as “Not Active”.
In the case of `O=C(NCCCCN1CCOCC1)c1ccc(-c2ccccc2)cc1`, the inhibition constant Ki in test [1] (read-out: Ki) is above 10 µM; in test [3], 1.8 µM; in test [4] (read-out: Ki), above 10 µM. The EC50 in test [2] (read-out: EC50) was 2.37 µM.
With `c1cncc(-c2ccc(-n3nnnc3CCCCN3CCOCC3)cc2)c1`, the Ki entry in test [1] (hek293) is “Not Active”; in test [3], 216 µM; in test [4] (hek293), “Not Active”. Further, the EC50 result in test [2] (gh4-c1) is recorded as “Not Active”.
Consider `c1ccc(-c2ccc(-n3nnnc3CCCCN3CCOCC3)cc2)cc1`, for which the Ki in test [1] (read-out: Ki) is above 1000 µM; in test [3] it was 236 µM; in test [4] (hek293) it was “Not Active”. For the same molecule, the EC50 entry in test [2] (gh4-c1) is listed as “Not Active”.
Take `c1cncc(-c2ccc(-c3nnnn3CCCCN3CCOCC3)cc2)c1`: the Ki in test [1] (read-out: Ki) was above 1000 µM; in test [3], 165 µM; in test [4] (hek293), “Not Active”. Further, the EC50 result in test [2] (gh4-c1) is “Not Active”.
`c1ccc(-c2ccc(-c3nnnn3CCCCN3CCOCC3)cc2)cc1`: the Ki in test [1] (read-out: Ki) is above 100 µM; in test [3], 156 µM; in test [4] (hek293), “Not Active”. The EC50 entry in test [2] (gh4-c1) is on record as “Not Active”.
